tested on: HCV subgenomic replication; assay: Cell based HCV replication assay (subgenomic replicon in Huh-7 cells, NS3 Cell-ELISA); details: Hepatitis C virus, Huh-7; Table 3, various macrocycles; activity ranges; read-out: IC50* (nM), Inhibition of HCV subgenomic replication
Outline: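 Huh-7 cells stably carrying the I377neo/NS3-3′/wt subgenomic replicon, seeded at 10^4 cells/well in DMEM/10% FCS and exposed to inhibitor for 96 h. NS3 expression was measured by Cell-ELISA (mAb 10E5/24, alkaline phosphatase, absorbance 405/620 nm), in duplicate. IC50 was fitted to the Hill equation, with background from parental Huh-7 cells.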

Q: With `CN1CCN2CCC(CC2)N(C)S(=O)(=O)NC(=O)c2ccc3c(C4CCCCC4)c4n(c3c2)C[C@@H]1COc1ccccc1-4` [Example 303, (5R)-31-cyclohexyl-4,24-dimethyl-7-oxa-23-thia-1,4,15,22,24-pentaazahexacyclo[23.2.2.1^5,15.1^14,17.1^16,20.0^8,13]dotriaconta-8,10,12,14(31),16(30),17,19-heptaen-21-one 23,23-dioxide] as the molecule, how does the IC50 read?
A: < 25 nM

same assay, conditions: Hepatitis C virus, Huh-7; Table 5, various macrocycles; activity ranges; read-out: IC50* (nM), Inhibition of HCV subgenomic replication

Q: `COc1ccc2c(c1)OC[C@@H]1CCN(C)C3CCN(CC3)S(=O)(=O)NC(=O)c3ccc4c(C5CCCCC5)c-2n(c4c3)C1` [Example 523, (20R)-30-cyclohexyl-15-methoxy-23-methyl-18-oxa-2-thia-1,3,10,23-tetraazahexacyclo[22.2.2.1^5,9.1^8,11.1^10,20.0^12,17]hentriaconta-5(31),6,8,11(30),12,14,16-heptaen-4-one 2,2-dioxide] was tested. Which IC50 did it give?
A: < 25 nM

same assay, conditions: Hepatitis C virus; Table A; activity ranges; Huh-7 replicon cells, 96 hours; read-out: IC50 (nM), Inhibition of HCV subgenomic replication

Q: Which IC50 does the source give for `CN1CCN2CCCC2CO[C@@H]2COc3ccccc3-c3c(C4CCCCC4)c4ccc(cc4n3C2)C(=O)NS1(=O)=O` (stereo partly drawn) [Compound A17, (20S)-31-cyclohexyl-10-methyl-19,22-dioxa-9-thia-1,8,10,13-tetraazahexacyclo[18.9.1.1^2,6.1^3,29.0^13,17.0^23,28]dotriaconta-2(32),3,5,23,25,27,29(31)-heptaen-7-one 9,9-dioxide] here?
A: 25 to 150 nM

same assay, conditions: Table 2, various macrocycles; activity ranges; read-out: IC50* (nM), Inhibition of HCV subgenomic replication

Q: With `CCN1CCN(C)C2COc3ccc(F)cc3-c3c(C4CCCCC4)c4ccc(cc4n3C2)C(=O)NS(=O)(=O)N(C)CC1` [Example 205, (7R)-14-cyclohexyl-21-ethyl-2-fluoro-18,24-dimethyl-7,8-dihydro-6H-7,11-(epiminoethanoiminoethanoiminothioiminomethano)-indolo[1,2-e][1,5]benzoxazocin-15-one 17,17-dioxide] as the molecule, how does the IC50 read?
A: < 25 nM

Q: Which IC50 does the source give for `CCCc1cccc2c1OCC1Cn3c-2c(C2CCCCC2)c2ccc(cc23)C(=O)NS(=O)(=O)N(C)CCN(C)CCN1C` [Example 212, (7R)-14-cyclohexyl-18,21,24-trimethyl-4-propyl-7,8-dihydro-6H-7,11-(epiminoethanoiminoethanoiminothioiminomethano)-indolo[1,2-e][1,5]benzoxazocin-15-one 17,17-dioxide] here?
A: 25 to 150 nM

Q: With `CCN1CCN(C)C2COc3cc(OC)ccc3-c3c(C4CCCCC4)c4ccc(cc4n3C2)C(=O)NS(=O)(=O)N(C)CC1` [Example 210, (7R)-14-cyclohexyl-21-ethyl-3-methoxy-18,24-dimethyl-7,8-dihydro-6H-7,11-(epiminoethanoiminoethanoiminothioiminomethano)-indolo[1,2-e][1,5]benzoxazocin-15-one 17,17-dioxide] as the molecule, how does the IC50 read?
A: < 25 nM

Q: Which IC50 does the source give for `CC(C)N1CCN(C)C2COc3ccc(F)cc3-c3c(C4CCCCC4)c4ccc(cc4n3C2)C(=O)NS(=O)(=O)N(C)CC1` [Example 209, (7R)-14-cyclohexyl-2-fluoro-21-isopropyl-18,24-dimethyl-7,8-dihydro-6H-7,11-(epiminoethanoiminoethanoiminothioiminomethano)-indolo[1,2-e][1,5]benzoxazocin-15-one 17,17-dioxide] here?
A: < 25 nM

same assay, conditions: Table 4, various macrocycles; activity ranges; read-out: IC50* (nM), Inhibition of HCV subgenomic replication

Q: Which IC50 does the source give for `CCN1CCN(C)C2COc3c(cccc3C(F)(F)F)-c3c(C4CCCCC4)c4ccc(cc4n3C2)C(=O)NS(=O)(=O)N(C)CC1` [Example 406, (7R)-14-cyclohexyl-21-ethyl-18,24-dimethyl-4-(trifluoromethyl)-7,8-dihydro-6H-7,11-(epiminoethanoiminoethanoiminothioiminomethano)-indolo[1,2-e][1,5]benzoxazocin-15-one 17,17-dioxide] here?
A: 150 to 500 nM

same assay, conditions: Table 5, various macrocycles; activity ranges; read-out: IC50* (nM), Inhibition of HCV subgenomic replication

Q: Which IC50 does the source give for `Cc1cccc2c1OCC1Cn3c-2c(C2CCCCC2)c2ccc(cc23)C(=O)NS(=O)(=O)N(C)CCN(CC(=O)N(C)C)CCN1C` [Example 514, 2-[(7R)-14-cyclohexyl-4,18,24-trimethyl-17,17-dioxido-15-oxo-7,8-dihydro-6H-7,11-(epiminoethanoiminoethanoiminothioiminomethano)-indolo[1,2-e][1,5]benzoxazocin-21-yl]-N,N-dimethylacetamide] here?
A: < 25 nM

Q: Which IC50 does the source give for `Cc1cccc2c1OCC1CCN(CCN(C)C)CCCN(C)S(=O)(=O)NC(=O)c3ccc4c(C5CCCCC5)c-2n(c4c3)C1` [Example 522, (7R)-14-cyclohexyl-22-[2-(dimethylamino)ethyl]-4,18-dimethyl-7,8-dihydro-6H-7,11-(ethanoiminopropanoiminothioiminomethano)indolo[1,2-e][1,5]benzoxazocin-15-one 17,17-dioxide] here?
A: < 25 nM

Q: For `Cc1cccc2c1OCC1CCCN(C)CCN(C)S(=O)(=O)NC(=O)c3ccc4c(C5CCCCC5)c-2n(c4c3)C1` [Example 520, (7R)-14-cyclohexyl-4,18,21-trimethyl-7,8-dihydro-6H-7,11-(propanoiminoethanoiminothioiminomethano)indolo[1,2-e][1,5]benzoxazocin-15-one 17,17-dioxide], which IC50 is on record?
A: < 25 nM

Q: How did the IC50 turn out when `Cc1cccc2c1OCC1Cn3c-2c(C2CCCCC2)c2ccc(cc23)C(=O)NS(=O)(=O)N(C)CCN(Cc2cnn(C)c2)CCN1C` [Example 517, (7R)-14-cyclohexyl-4,18,24-trimethyl-21-[(1-methyl-1H-pyrazol-4-yl)methyl]-7,8-dihydro-6H-7,11-(epiminoethanoiminoethanoiminothioiminomethano)-indolo[1,2-e][1,5]benzoxazocin-15-one 17,17-dioxide] was run?
A: < 25 nM

same assay, conditions: Table A; activity ranges; Huh-7 replicon cells, 96 hours; read-out: IC50 (nM), Inhibition of HCV subgenomic replication

Q: Which IC50 does the source give for `COc1ccc2c(c1)CC1CCN(C)CCN(C)S(=O)(=O)NC(=O)c3ccc4c(C5CCCCC5)c-2n(c4c3)C1` (stereo not shown) [Compound A10, 13-cyclohexyl-3-methoxy-17,20-dimethyl-6,7-dihydro-5H-6,10-(ethanoiminoethanoiminothioiminomethano)indolo[2,1-a][2]benzazepin-14-one 16,16-dioxide] here?
A: 25 to 150 nM

Q: `CCN1CCN(C)C2COc3c(OC)cccc3-c3c(C4CCCCC4)c4ccc(cc4n3C2)C(=O)NS(=O)(=O)N(C)CC1` [Compound A28, (7R)-14-cyclohexyl-21-ethyl-4-methoxy-18,24-dimethyl-7,8-dihydro-6H-7,11-(epiminoethanoiminoethanoiminothioiminomethano)indolo[1,2-e][1,5]benzoxazocin-15-one 17,17-dioxide] was tested. Which IC50 did it give?
A: < 25 nM

Q: With `COc1ccc2c(c1)OCC1CCCN(C)CCN(C)S(=O)(=O)NC(=O)c3ccc4c(C5CCCCC5)c-2n(c4c3)C1` (single isomer, unassigned; (-)) [Compound A37, (−)-14-cyclohexyl-3-methoxy-18,21-dimethyl-7,8-dihydro-6H-7,11-(propanoiminoethanoiminothioiminomethano)indolo[1,2-e][1,5]benzoxazocin-15-one 17,17-dioxide] as the molecule, how does the IC50 read?
A: < 25 nM

Q: `COc1ccc2c(c1)OCC1CCN(C)CCCN(C)S(=O)(=O)NC(=O)c3ccc4c(C5CCCCC5F)c-2n(c4c3)C1` (single isomer, unassigned) [Compound A38, 14-[(1R,2S) or (1S,2R)-2-fluorocyclohexyl]-3-methoxy-18,22-dimethyl-7,8-dihydro-6H-7,11-(ethanoiminopropanoiminothioiminomethano)indolo[1,2-e][1,5]benzoxazocin-15-one 17,17-dioxide] was tested. Which IC50 did it give?
A: < 25 nM

Q: Which IC50 does the source give for “(7R)-14-cyclohexyl-4-methoxy-18,22-dimethyl-7,8-dihydro-6H-7,11-(ethanoiminopropanoiminothioiminomethano)indolo[1,2-e][1,5]benzoxazocin-15-one 17,17-dioxide [Compound A33]” here?
A: < 25 nM

Q: How did the IC50 turn out when `CCN1CCN(C)C2COc3c(CN4CCCCC4)cccc3-c3c(C4CCCCC4)c4ccc(cc4n3C2)C(=O)NS(=O)(=O)N(C)CC1` [Compound A26, (7R)-14-cyclohexyl-21-ethyl-18,24-dimethyl-4-(piperidin-1-ylmethyl)-7,8-dihydro-6H-7,11-(epiminoethanoiminoethanoiminothioiminomethano)indolo[1,2-e][1,5]benzoxazocin-15-one 17,17-dioxide] was run?
A: < 25 nM

Q: How did the IC50 turn out when `CCN1CCN(CCN(C)C)C2COc3cc(F)ccc3-c3c(C4CCCCC4)c4ccc(cc4n3C2)C(=O)NS(=O)(=O)N(C)CC1` [Compound A12, (7R)-14-cyclohexyl-24-[2-(dimethylamino)ethyl]-21-ethyl-3-fluoro-18-methyl-7,8-dihydro-6H-7,11-(epiminoethanoiminoethanoiminothioiminomethano)-indolo[1,2-e][1,5]benzoxazocin-15-one 17,17-dioxide] was run?
A: < 25 nM

Q: For `CN1CCN(C)C2COc3cc(OCc4ccccn4)ccc3-c3c(C4CCCCC4)c4ccc(cc4n3C2)C(=O)NS(=O)(=O)N(C)CC1` [Compound A8, (7R)-14-cyclohexyl-18,21,24-trimethyl-3-(pyridin-2-ylmethoxy)-7,8-dihydro-6H-7,11-(epiminoethanoiminoethanoiminothioiminomethano)indolo[1,2-e][1,5]benzoxazocin-15-one 17,17-dioxide], which IC50 is on record?
A: < 25 nM

Q: How did the IC50 turn out when `CN1CCCC2COc3ccccc3-c3c(C4CCCCC4F)c4ccc(cc4n3C2)C(=O)NS(=O)(=O)N(C)CC1` (single isomer, unassigned) [Compound A40, (7R)-14-[(1R,2S) or (1S,2R)-2-fluorocyclohexyl]-18,21-dimethyl-7,8-dihydro-6H-7,11-(propanoiminoethanoiminothioiminomethano)indolo[1,2-e][1,5]benzoxazocin-15-one 17,17-dioxide] was run?
A: < 25 nM

Q: For `COc1ccc2c(c1)OCC1CCN(C)CCCN(C)S(=O)(=O)NC(=O)c3ccc4c(C5CCCCC5)c-2n(c4c3)C1` (single isomer, unassigned; (-)) [Compound A35, (−)-14-cyclohexyl-3-methoxy-18,22-dimethyl-7,8-dihydro-6H-7,11-(ethanoiminopropanoiminothioiminomethano)indolo[1,2-e][1,5]benzoxazocin-15-one 17,17-dioxide], which IC50 is on record?
A: < 25 nM
